Experimental data from patent publication US12180372B2, “Resin composition, optical filter, image display device, solid-state imaging element, and colorant mixture” (FUJIFILM Corporation, priority 2018, dated 2024).

Key:
[1] = Evaluation of solubility of colorant mixture; type: physicochemical; conditions: for Evaluation Solubility: added to toluene at 23° C., stirred for 1 hour, visually observed; for solubility in toluene: 23° C.
Protocol: Solubility of the colorant mixture shown in the following table in […] was evaluated. Specifically, the colorant mixture was added to toluene at 23° C., stirred for 1 hour, and the presence or absence of dissolution of the colorant was visually observed and the solubility was evaluated based on the following evaluation standard.

[2] = Measurement of maximum absorption wavelength of colorant or colorant mixture in chloroform solution; type: physicochemical; conditions: colorant mixture in chloroform, 1×10^−6 mol/L, 10 mm cell, 23° C.
Protocol: The obtained compound F-3 was dissolved in chloroform (concentration: 1×10^−6 mol/L), and the maximum absorption wavelength […] and molar absorption coefficient (c) of the compound F-3 was measured using a cell having an optical path length of 10 mm and using a spectrophotometer UV-1800PC (manufactured by Shimazu Corporation). The maximum absorption wavelength λmax of the compound F-3 was 679 nm, and the molar absorption coefficient (s) was 355000. The obtained compound F-38 was dissolved in chloroform (concentration: 1×10^−6 mol/L), and the maximum absorption wavelength […] and molar absorption coefficient (ε) of the compound F-38 was measured using a cell having an optical path length of 10 mm and using a spectrophotometer UV-1800PC (manufactured by Shimadzu Corporation). The maximum absorption wavelength λmax of the compound F-38 was 590 nm, and the molar absorption coefficient (ε) was 204000. The obtained compound F-51 was dissolved in chloroform (concentration: 1×10^−6 mol/L), and the maximum absorption wavelength λmax and molar absorption coefficient (ε) of the compound F-51 was measured using a cell having an optical path length of 10 mm and using a spectrophotometer UV-1800 (PC (manufactured by Shimadzu Corporation). The maximum absorption wavelength λmax of the compound F-51 was 589 nm, and the molar absorption coefficient (ε) was 244000. The obtained compound F-75 was dissolved in chloroform (concentration: 1×10^−6 mol/L), and the maximum absorption wavelength λmax and molar absorption coefficient (ε) of the compound F-75 was measured using a cell having an optical path length of 10 mm and using a spectrophotometer t-UV-1800PC (manufactured by Shimadzu Corporation). The maximum absorption wavelength λmax of the compound F-75 was 589 nm, and the molar absorption coefficient (ε) was 221000.

SMILES	Evaluation Solubility [1]	solubility in toluene [1]	λmax (nm) [2] [nm]
CC1=CC(C)=N/C1=C1\C(=O)C(c2[nH]c(C)cc2C)=C1O [Compound A-3]	D (solubility was less than 0.1% by mass)	less than 0.1 % by mass	498
CCN(CC)c1ccc(C2=C([O-])C(=C3C=CC(=[N+](CC)CC)C=C3)C2=O)cc1 [Compound A-21]	D (solubility was less than 0.1% by mass)	less than 01 % by mass	634
CCN(CC)c1ccc(C2=C([O-])/C(=C3/C=CC(=[N+](CC)CC)C=C3NC(=O)C(C)(C)CC)C2=O)c(NC(=O)C(C)(C)CC)c1 [Compound A-24]	C (solubility was 0.1% by mass or more and less than 0.5% by mass)	less than 0.5 % by mass	673
